ChEMBL document CHEMBL1201862, “PubChem BioAssay data set” (2004)
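Five compound concentrations were applied to cells in 96-well plates for 48 hours; endpoints were derived by simple linear interpolation of the resulting dose-response curve. GI50: concentration for 50% inhibition of growth.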 Activity calls are given as the source filed them. Cut-off read from the data, not from the text of the source: active = GI50 up to about 1.1 µM and inactive = higher.

Columns and labels:
Test in all cases: NCI tumour cell line growth inhibition, 48 h
MDA-MB-231 = test system: MDA-MB-231
SK-OV-3 = test system: SK-OV-3
HL-60 = test system: HL-60
OVCAR-3 = test system: OVCAR-3
ACHN = test system: ACHN
MDA-MB-435 = test system: MDA-MB-435
NCI-H23 = test system: NCI-H23
A549 = test system: A549
MCF7 = test system: MCF7
COLO 205 = test system: COLO 205
OVCAR-4 = test system: OVCAR-4
KM12 = test system: KM12
RPMI-8226 = test system: RPMI-8226
SK-MEL-28 = test system: SK-MEL-28
U-251 = test system: U-251
SF-268 = test system: SF-268
OVCAR-5 = test system: OVCAR-5
UO-31 = test system: UO-31
NCI-H226 = test system: NCI-H226
SK-MEL-5 = test system: SK-MEL-5
Malme-3M = test system: Malme-3M
SW-620 = test system: SW-620
HOP-62 = test system: HOP-62
CAKI-1 = test system: CAKI-1
SN12C = test system: SN12C
BT-549 = test system: BT-549
RXF 393 = test system: RXF 393
IGROV-1 = test system: IGROV-1
HCC 2998 = test system: HCC 2998
M14 = test system: M14
HT-29 = test system: HT-29
TK-10 = test system: TK-10
SR = test system: SR
HCT-116 = test system: HCT-116
EKVX = test system: EKVX
SF-295 = test system: SF-295
SNB-19 = test system: SNB-19
NCI-H460 = test system: NCI-H460
786-0 = test system: 786-0
OVCAR-8 = test system: OVCAR-8
NCI/ADR-RES = test system: NCI/ADR-RES
SK-MEL-2 = test system: SK-MEL-2
HCT-15 = test system: HCT-15
UACC-62 = test system: UACC-62
NCI-H522 = test system: NCI-H522
K562 = test system: K562
Hs-578T = test system: Hs-578T
CCRF-CEM = test system: CCRF-CEM
MOLT-4 = test system: MOLT-4
UACC-257 = test system: UACC-257
SNB-75 = test system: SNB-75
PC-3 = test system: PC-3
LOX IMVI = test system: LOX IMVI
A498 = test system: A498
HOP-92 = test system: HOP-92
MDA-N = test system: MDA-N
SF-539 = test system: SF-539
DU-145 = test system: DU-145

Measured: GI50

CSc1cc(Cl)c(C)cc1S(=O)(=O)NC(=O)Nc1ccc(Cl)cc1
20.5 µM: HCT-15
inactive: MDA-MB-231 29.5 µM | SK-OV-3 38.7 µM | HL-60 12.3 µM | OVCAR-3 28 µM | ACHN 27.8 µM | MDA-MB-435 38.4 µM | NCI-H23 18.4 µM | A549 33.3 µM | MCF7 30.3 µM | COLO 205 15.5 µM | OVCAR-4 40.1 µM | KM12 24.1 µM | RPMI-8226 30.9 µM | SK-MEL-28 46.1 µM | U-251 36.6 µM | SF-268 35.9 µM | OVCAR-5 45.3 µM | UO-31 17 µM | NCI-H226 22 µM | SK-MEL-5 22.2 µM | Malme-3M 31.6 µM | SW-620 33.7 µM | HOP-62 24.6 µM | CAKI-1 41.6 µM | SN12C 36.5 µM | BT-549 32 µM | RXF 393 22.9 µM | IGROV-1 39.6 µM | HCC 2998 16 µM | M14 39.9 µM | HT-29 35.2 µM | TK-10 28.5 µM | SR 21.5 µM | HCT-116 17.5 µM | EKVX 32.7 µM | SF-295 29.6 µM | SNB-19 30.5 µM | NCI-H460 29.1 µM | 786-0 31.2 µM | OVCAR-8 35.6 µM | NCI/ADR-RES 25.6 µM | SK-MEL-2 25.8 µM | NCI-H522 20.4 µM | K562 29.9 µM | Hs-578T 51.8 µM | CCRF-CEM 12.6 µM | MOLT-4 16.8 µM | UACC-257 28.5 µM | SNB-75 27.1 µM | PC-3 19.9 µM | LOX IMVI 10.9 µM | A498 38.2 µM | HOP-92 24.4 µM | MDA-N 33.5 µM
active: UACC-62 0.48 µM

COC1OC2COC(=O)c3cc(O)c(O)c(O)c3-c3c(cc(O)c(O)c3O)C(=O)OC2C(O)C1O (stereo unspecified)
> 100 µM: HCT-15
inactive: SF-539 > 100 µM | MDA-MB-231 > 100 µM | SK-OV-3 > 100 µM | HL-60 > 10 µM | OVCAR-3 80 µM | ACHN 77.8 µM | MDA-MB-435 30.5 µM | NCI-H23 > 100 µM | A549 72.6 µM | MCF7 42.6 µM | COLO 205 54.1 µM | OVCAR-4 31.5 µM | KM12 > 100 µM | RPMI-8226 55.7 µM | SK-MEL-28 > 100 µM | U-251 61.2 µM | SF-268 64 µM | OVCAR-5 53.8 µM | UO-31 > 100 µM | NCI-H226 > 100 µM | SK-MEL-5 84.7 µM | Malme-3M > 100 µM | SW-620 21.7 µM | HOP-62 53 µM | CAKI-1 63.8 µM | SN12C 16.5 µM | BT-549 > 100 µM | RXF 393 > 100 µM | IGROV-1 > 100 µM | M14 43.9 µM | HT-29 34.4 µM | TK-10 > 100 µM | HCT-116 34.9 µM | EKVX > 100 µM | SF-295 18.9 µM | SNB-19 > 100 µM | NCI-H460 45.3 µM | 786-0 47.4 µM | OVCAR-8 54.1 µM | NCI/ADR-RES > 100 µM | SK-MEL-2 84.5 µM | UACC-62 21.4 µM | NCI-H522 94.8 µM | K562 36.4 µM | DU-145 > 100 µM | Hs-578T > 100 µM | CCRF-CEM 37.3 µM | MOLT-4 28.6 µM | UACC-257 > 100 µM | SNB-75 62.8 µM | PC-3 > 100 µM | LOX IMVI 23.2 µM | MDA-N 24 µM

O=C1Nc2c(Cl)cc(Cl)cc2/C1=N/NC(=O)c1ccncc1
32.1 µM: HCT-15
inactive: SF-539 21.6 µM | MDA-MB-231 17.3 µM | SK-OV-3 25.6 µM | HL-60 9.64 µM | OVCAR-3 15.5 µM | ACHN 38 µM | MDA-MB-435 16.5 µM | NCI-H23 22.8 µM | A549 > 100 µM | MCF7 32.9 µM | COLO 205 27.2 µM | OVCAR-4 22.2 µM | KM12 30.9 µM | SK-MEL-28 22.6 µM | U-251 18.1 µM | OVCAR-5 61 µM | UO-31 27.9 µM | NCI-H226 47.2 µM | SK-MEL-5 17.9 µM | Malme-3M 16.9 µM | SW-620 28.4 µM | HOP-62 25.8 µM | CAKI-1 18.4 µM | SN12C 26.2 µM | BT-549 37.8 µM | RXF 393 20 µM | IGROV-1 22.9 µM | HCC 2998 44.1 µM | M14 46.2 µM | HT-29 27.4 µM | TK-10 73.1 µM | SR 14.7 µM | HCT-116 19.1 µM | EKVX 28.5 µM | SF-295 38.5 µM | SNB-19 > 100 µM | NCI-H460 46.7 µM | 786-0 17.4 µM | OVCAR-8 20.6 µM | NCI/ADR-RES 23.1 µM | SK-MEL-2 19 µM | UACC-62 17.3 µM | K562 27.9 µM | Hs-578T 40.6 µM | CCRF-CEM 29.4 µM | MOLT-4 25.2 µM | UACC-257 19.6 µM | SNB-75 46.3 µM | PC-3 15.7 µM | LOX IMVI 16.9 µM | A498 > 100 µM | HOP-92 33.2 µM | MDA-N 15.7 µM

N#Cc1nc(C2=C(Cl)c3ccccc3OC2)[nH]c1C#N
34.8 µM: HCT-15
inactive: SF-539 17.1 µM | SK-OV-3 36.7 µM | HL-60 22.7 µM | OVCAR-3 27.7 µM | ACHN 32.5 µM | NCI-H23 25.1 µM | A549 33.3 µM | MCF7 22.8 µM | OVCAR-4 53.3 µM | KM12 26.1 µM | RPMI-8226 24.4 µM | SK-MEL-28 23.2 µM | U-251 18.4 µM | SF-268 32.6 µM | OVCAR-5 38.5 µM | UO-31 24 µM | SK-MEL-5 19.1 µM | SW-620 24.7 µM | CAKI-1 58.6 µM | SN12C 27.5 µM | BT-549 18.9 µM | RXF 393 13.9 µM | IGROV-1 30.1 µM | HCC 2998 16.3 µM | M14 19.4 µM | HT-29 19.1 µM | TK-10 33.6 µM | EKVX 31.5 µM | SNB-19 29.8 µM | NCI-H460 22 µM | 786-0 32.1 µM | OVCAR-8 30.4 µM | NCI/ADR-RES 41.1 µM | UACC-62 22.9 µM | K562 22.2 µM | Hs-578T 38.3 µM | CCRF-CEM 11.5 µM | MOLT-4 12.9 µM | PC-3 11 µM | LOX IMVI 16.9 µM | A498 24.3 µM | HOP-92 14.9 µM

CCN1CC2=C(NC(=S)NC2c2cc(OC)c(OC)c(OC)c2)/C(=C/c2cc(OC)c(OC)c(OC)c2)C1 (stereo unspecified)
active: Malme-3M 0.871 µM
inactive: MDA-MB-231 34.1 µM | SK-OV-3 > 100 µM | HL-60 19.5 µM | OVCAR-3 67.5 µM | ACHN 44.9 µM | MDA-MB-435 28.3 µM | NCI-H23 38.2 µM | A549 26.7 µM | MCF7 24.6 µM | COLO 205 20.1 µM | OVCAR-4 75.2 µM | KM12 98.6 µM | RPMI-8226 14.1 µM | SK-MEL-28 13.7 µM | U-251 45.1 µM | SF-268 6.31 µM | OVCAR-5 14.4 µM | UO-31 20.5 µM | NCI-H226 27.5 µM | SK-MEL-5 13.2 µM | SW-620 86.3 µM | HOP-62 50.6 µM | CAKI-1 19.4 µM | BT-549 46.5 µM | RXF 393 33 µM | IGROV-1 24.4 µM | HCC 2998 29.8 µM | M14 16.6 µM | HT-29 23.4 µM | TK-10 36.1 µM | HCT-116 27.7 µM | EKVX 15 µM | SF-295 53 µM | SNB-19 36.8 µM | NCI-H460 46.8 µM | 786-0 28.4 µM | OVCAR-8 21.7 µM | NCI/ADR-RES 30.9 µM | SK-MEL-2 70.8 µM | UACC-62 31.8 µM | NCI-H522 10.6 µM | K562 17.3 µM | DU-145 33.3 µM | CCRF-CEM 37.4 µM | MOLT-4 20.9 µM | UACC-257 59 µM | SNB-75 2.74 µM | PC-3 26.4 µM | LOX IMVI 37.2 µM | A498 27.3 µM | HOP-92 18.1 µM | MDA-N 25.8 µM
32 µM: HCT-15
